Laboratory results from patent publication US20240287463A1, “INDUCIBLE TISSUE CONSTRUCTS AND USES THEREOF” (Massachusetts Institute of Technology, priority 2020, published 2024).

Experiments:
[1] = system: iCasp9-GFP J2s; assay: cell viability / removal from monolayer culture (CellTiter-Glo); assay type: cell-based; settings: after CID exposure (500 nM, 50 nM, 5 nM in FIG. 1G)
Source text: Inducible caspase-9 (iCasp9), which is activated by treatment with a small molecule chemical inducer of dimerization (CID; also known as rapalog, an analog of rapamycin) and leads to subsequent cell death through the intrinsic apoptosis pathway was utilized (FIG. 1A). The safety and efficacy of the iCasp9 transgene and CID have previously been shown in vitro and in vivo in animals and humans (A. Di Stasi, et al. (2011) dx.doi.org/10.1056/NEJMoa1106152; T. Gargett and M. P. Brown (2014) Front. Pharmacol. 5; K. C. Straathof, et al. (2005) Blood 105, 4247, each of which is herein incorporated by this reference). To generate inducible cells, 3T3-J2 fibroblasts (‘J2’) were transduced with lentivirus with a bidirectional expression cassette encoding iCasp9 and GFP genes (#15567 pMSCV-F-del Casp9.IRES.GFP; cloned to a lentivirus plasmid backbone with an SFFV promoter). FACS was used to enrich the infected population for the 15% highest-expression GFP+ cells. […]
After iCasp9-GFP J2 fibroblasts were exposed to CID, iCasp9 dimers were detected by staining with a caspase-9 antibody (FIG. 1C). […] To confirm that CID-triggered caspase-9 activation led to apoptosis, unfixed cells were stained with Annexin V, which binds to an early indicator of apoptosis, and SYTOX, a general marker of cell death, and analyzed by flow cytometry.

[2] = system: unmodified J2s; assay: CID exposure of MPCCs plated with unmodified fibroblasts; assay type: cell-based; settings: data not shown
Source text: (§1) Specifically, MPCC were fabricated as described previously (S. R. Khetani and S. N. Bhatia (2005) Nat. Biotechnol 26, 120; S. March et al. (2015) Nat. Protoc. 10, 2007). Briefly, collagen was adsorbed in each well of a 96 well plate (glass bottom), and then patterned using an elastomeric polydimethysiloxane mold and oxygen plasma gas ablation. Human hepatocytes were thawed and seeded (70 k/well) on the collagen islands (500 μm with 1,200 μm center-to-center spacing). Adhered hepatocytes (˜10 k/well) were allowed to spread overnight before fibroblasts were seeded for co-culture (7 k/well). Supernatant was collected from cultures every other day and stored at −20° C. Human albumin was quantified using an enzyme-linked immunosorbent assay using a sheep anti-rat albumin antibody (ELISA) (Bethyl Laboratories) and 3,3′,5,5′-tetramethylbenzidine (TMB, Thermo Fisher). Urea concentration was measured using a colorimetric (diacetylmonoxime) assay with acid and heat (Stanbio Labs). CYP3A4 activity was assessed with the luminogenic P450-GloTM CYP450 assay kit (Promega) for nonlytic assays using cultured cells. Cultures were pre-treated with 2 μM rifampin or 1:1,000 DMSO vehicle control prepared in hepatocyte maintenance media for 72 hours (daily replenishment) where indicated. […]

[3] = system: primary human hepatocytes; assay: hepatocyte phenotypic stability (albumin production) in MPCC after fibroblast deletion; assay type: cell-based; settings: CID at day 1, day 3 or day 7 of 2D MPCC
Source text: as §1, with “cells.” for “cells. Cultures were pre-treated with 2 μM rifampin or 1:1,000 DMSO vehicle control prepared in hepatocyte maintenance media for 72 hours (daily replenishment) where indicated.”
To query the dependence of hepatocytes on fibroblasts, fibroblasts were deleted from MPCCs by CID treatment at various time points and albumin production was assessed as a surrogate marker of phenotypic stability.

[4] = system: iCasp9-HLF; assay: HUVEC/iCasp9-HLF tissue constructs implanted in mouse fat pad; assay type: in vivo, mice; settings: 10 mg/kg intraperitoneally on days 5, 7, 9
Protocol: The ability to successfully transplant the described tissue constructs was assessed in mice. Specifically, engineered tissue constructs consisting of HUVECs and iCasp9-human lung fibroblasts (iCasp9-HLF, see Example 7) were cultured for 7 days in vitro. Constructs were then implanted into the intraperitoneal mesenteric parametrial fat pad of mice. Five days after implantation, mice were injected with 10 mg/kg CID or vehicle intraperitoneally. Mice were dosed again on days 7 and 9. Constructs were collected from mice on day 10 post-implantation. Explants were cryosectioned and imaged to visualize the presence of cells.

[5] = system: implanted hepatocyte tissue constructs; assay: human albumin in plasma of mice implanted with hepatocyte/iCasp9-HDF/HUVEC constructs (ELISA); assay type: in vivo; settings: 10 mg/kg on days 5 and 6 post-implantation, plasma at day 7
Protocol: Following the confirmation of vessel maintenance and anastomosis and ability to induce death of implanted fibroblasts in vivo, hepatocyte function was evaluated in implanted hepatocyte tissue constructs. Specifically, mice were implanted with hepatocyte/iCasp9-HDF/HUVEC tissue constructs after in vitro culture for 7 days. Constructs were implanted in mouse fat pads as described above, and treated with 10 mg/kg CID or vehicle on days 5 and 6 post-implantation. At day 7, blood was collected and centrifuged to isolate plasma.

For `CC[C@H](C(=O)N1CCCC[C@H]1C(=O)O[C@H](CCc1ccc(OC)c(OC)c1)c1cccc(OCC(=O)NCC(CNC(=O)COc2cccc([C@@H](CCc3ccc(OC)c(OC)c3)OC(=O)[C@@H]3CCCCN3C(=O)[C@@H](CC)c3cc(OC)c(OC)c(OC)c3)c2)CN(C)C)c1)c1cc(OC)c(OC)c(OC)c1` [CID, AP20187], the “time to efficient removal from culture” value [1] was ≤ 1 h, the “effect of CID exposure on unmodified J2s in MPCCs” value [2] was “unaffected” and the “hepatocyte phenotypic stability (albumin production)” value [3] was “loss of hepatocyte phenotypic stability”. For the same compound, the “integration of engineered vessels with host vessels (anti-TER119)” value ([4]; collected day 10) was “demonstrated vessel integration”, the “iCasp9-HLF in explants compared to vehicle treated mice” value ([4]; collected day 10 post-implantation) was “reduction” and the “human albumin secretion compared to vehicle control and in vitro CID treated constructs” value [5] was “similar”.
